Source: patent publication US20020051978A1, “Methods and compositions for the identification, assessment, prevention and therapy of human cancers” (priority 2000, published 2002)
Read-outs that look alike come from different tables or passages of the source.

Assays:
[1] = tested on: 60 cancer cell lines (NCI 60 cancer cell line series); assay: NCI-DTP in vitro cancer screen, sulforhodamine B (SRB) growth inhibition, 48 hour exposure; format: cell-based, human; design: key to sensitivity class Ovarian OVCAR-8 CL6005 / sensitivity class Ovarian SK-OV-3 CL6011 / sensitivity class Prostate DU-145 CL11003 / sensitivity class NSCLC NCI-H522 CL1003 / sensitivity class Ovarian IGROV1 CL6010 / sensitivity class Ovarian OVCAR-4 CL6002 / sensitivity class Prostate PC-3(I) CL11001 / sensitivity class Renal A498 CL9013 / sensitivity class Renal SN12C CL9008: sensitivity class: 1 = Low, 2 = Medium, 3 = High
In short: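 Values come from the NCI-DTP screen database: -log GI50, the concentration giving 50% growth inhibition, derived from SRB cell-mass dose-response curves. Each line seeded at its own density, treated day 1 at five ten-fold-spaced doses in duplicate wells, stained after 48 h.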

[2] = tested on: 60 cancer cell lines (NCI 60 cancer cell line series); settings: cited from earlier work

Sc1ncnc2nc[nH]c12 [6-mercaptopurine]
classification of cell line as Low(1), Medium(2) or High(3) sensitivity to compound ([1]; Breast BT-549 (CL5013)): 1
classification of cell line as Low(1), Medium(2) or High(3) sensitivity to compound ([1]; Breast HS-578T CL5006): 1
classification of cell line as Low(1), Medium(2) or High(3) sensitivity to compound ([1]; Breast MCF7(I) (CL5001)): 2
classification of cell line as Low(1), Medium(2) or High(3) sensitivity to compound ([1]; Breast MCF7/ADRr (CL5002)): 2
classification of cell line as Low(1), Medium(2) or High(3) sensitivity to compound ([1]; Breast MDA-MB-231 CL5005): 1
classification of cell line as Low(1), Medium(2) or High(3) sensitivity to compound ([1]; Breast MDA-MB-435 (CL5011)): 2
classification of cell line as Low(1), Medium(2) or High(3) sensitivity to compound ([1]; Breast MDA-N CL5012): 2
classification of cell line as Low(1), Medium(2) or High(3) sensitivity to compound ([1]; Breast T-47D (CL5014)): 2
classification of cell line as Low(1), Medium(2) or High(3) sensitivity to compound ([1]; CNS SF-268 CL12014): 2
classification of cell line as Low(1), Medium(2) or High(3) sensitivity to compound ([1]; CNS SF-295 CL12015): 2
classification of cell line as Low(1), Medium(2) or High(3) sensitivity to compound ([1]; CNS SF-539 CL12016): 2
classification of cell line as Low(1), Medium(2) or High(3) sensitivity to compound ([1]; CNS SNB-19 (CL12002)): 1
classification of cell line as Low(1), Medium(2) or High(3) sensitivity to compound ([1]; CNS SNB-75(I) CL12005): 2
classification of cell line as Low(1), Medium(2) or High(3) sensitivity to compound ([1]; CNS U251(I) CL12009): 2
classification of cell line as Low(1), Medium(2) or High(3) sensitivity to compound ([1]; Colon COLO-250 CL4010): 2
classification of cell line as Low(1), Medium(2) or High(3) sensitivity to compound ([1]; Colon HCC-2998 (CL4002)): 2
classification of cell line as Low(1), Medium(2) or High(3) sensitivity to compound ([1]; Colon HCT-15 CL4015): 2
classification of cell line as Low(1), Medium(2) or High(3) sensitivity to compound ([1]; Colon HCT-116 (CL4003)): 2
classification of cell line as Low(1), Medium(2) or High(3) sensitivity to compound ([1]; Colon HT29(I) CL4001): 2
classification of cell line as Low(1), Medium(2) or High(3) sensitivity to compound ([1]; Colon KM12 (CL4017)): 2
classification of cell line as Low(1), Medium(2) or High(3) sensitivity to compound ([1]; Colon SW-620 (CL4009)): 2
classification of cell line as Low(1), Medium(2) or High(3) sensitivity to compound ([1]; Leukemia CCRF-CEM(I) (CL7003)): 3
classification of cell line as Low(1), Medium(2) or High(3) sensitivity to compound ([1]; Leukemia HL-60(I) (CL7008)): 2
classification of cell line as Low(1), Medium(2) or High(3) sensitivity to compound ([1]; Leukemia K562(I) CL7005): 3
classification of cell line as Low(1), Medium(2) or High(3) sensitivity to compound ([1]; Leukemia MOLT-4 (CL7006)): 2
classification of cell line as Low(1), Medium(2) or High(3) sensitivity to compound ([1]; Leukemia RPMI-8226(I) (CL7010)): 2
classification of cell line as Low(1), Medium(2) or High(3) sensitivity to compound ([1]; Leukemia SR CL7019): 3
classification of cell line as Low(1), Medium(2) or High(3) sensitivity to compound ([1]; Melanoma LOX IMVI CL10001): 3
classification of cell line as Low(1), Medium(2) or High(3) sensitivity to compound ([1]; Melanoma M14 (CL10014)): 3
classification of cell line as Low(1), Medium(2) or High(3) sensitivity to compound ([1]; Melanoma MALME-3M CL10002): 2
classification of cell line as Low(1), Medium(2) or High(3) sensitivity to compound ([1]; Melanoma SK-MEL-2 (CL10005)): 2
classification of cell line as Low(1), Medium(2) or High(3) sensitivity to compound ([1]; Melanoma SK-MEL-5 (CL10007)): 2
classification of cell line as Low(1), Medium(2) or High(3) sensitivity to compound ([1]; Melanoma SK-MEL-28 (CL10008)): 1
classification of cell line as Low(1), Medium(2) or High(3) sensitivity to compound ([1]; Melanoma UACC-62 (CL10020)): 2
classification of cell line as Low(1), Medium(2) or High(3) sensitivity to compound ([1]; Melanoma UACC-257 (CL10021)): 1
classification of cell line as Low(1), Medium(2) or High(3) sensitivity to compound ([1]; NSCLC A549/ATCC (CL1004)): 1
classification of cell line as Low(1), Medium(2) or High(3) sensitivity to compound ([1]; NSCLC EKVX (CL1008)): 1
classification of cell line as Low(1), Medium(2) or High(3) sensitivity to compound ([1]; NSCLC HOP-62 (CL1026)): 2
classification of cell line as Low(1), Medium(2) or High(3) sensitivity to compound ([1]; NSCLC HOP-92 (CL1029)): 2
classification of cell line as Low(1), Medium(2) or High(3) sensitivity to compound ([1]; NSCLC NCI-H226 CL1013): 1
sensitivity class NSCLC NCI-H23(I) CL1001 ([1]; cell line NSCLC NCI-H23(I), CL1001): 2
sensitivity class NSCLC NCI-H332M CL1017 ([1]; cell line NSCLC NCI-H332M, CL1017): 2
sensitivity class NSCLC NCI-H460 CL1021 ([1]; cell line NSCLC NCI-H460, CL1021): 2
sensitivity class NSCLC NCI-H522 CL1003 ([1]; cell line NSCLC NCI-H522, CL1003): 2
sensitivity class Ovarian IGROV1 CL6010 ([1]; cell line Ovarian IGROV1, CL6010): 2
sensitivity class Ovarian OVCAR-3 CL6001 ([1]; cell line Ovarian OVCAR-3, CL6001): 3
sensitivity class Ovarian OVCAR-4 CL6002 ([1]; cell line Ovarian OVCAR-4, CL6002): 2
sensitivity class Ovarian OVCAR-5 CL6003 ([1]; cell line Ovarian OVCAR-5, CL6003): 2
sensitivity class Ovarian OVCAR-8 CL6005 ([1]; cell line Ovarian OVCAR-8, CL6005): 2
sensitivity class Ovarian SK-OV-3 CL6011 ([1]; cell line Ovarian SK-OV-3, CL6011): 3
sensitivity class Prostate DU-145 CL11003 ([1]; cell line Prostate DU-145, CL11003): 2
sensitivity class Prostate PC-3(I) CL11001 ([1]; cell line Prostate PC-3(I), CL11001): 2
sensitivity class Renal 786-O CL9018 ([1]; cell line Renal 786-O, CL9018): 2
sensitivity class Renal A498 CL9013 ([1]; cell line Renal A498, CL9013): 1
sensitivity class Renal ACHN CL9023 ([1]; cell line Renal ACHN, CL9023): 2
sensitivity class Renal CAKI-1 CL9015 ([1]; cell line Renal CAKI-1, CL9015): 2
sensitivity class Renal RXF-393 CL9016 ([1]; cell line Renal RXF-393, CL9016): 1
sensitivity class Renal SN12C CL9008 ([1]; cell line Renal SN12C, CL9008): 1
sensitivity class Renal TK10 CL9024 ([1]; cell line Renal TK10, CL9024): 2
sensitivity class Renal UO-31 CL9004 ([1]; cell line Renal UO-31, CL9004): 2
-Log (GI50) ([2]; Breast BT-549 (CL5013)): 3.9
-Log (GI50) ([2]; Breast HS-578T CL5006): 4.8
-Log (GI50) ([2]; Breast MCF7(I) (CL5001)): 5.8
-Log (GI50) ([2]; Breast MCF7/ADRr (CL5002)): 5.5
-Log (GI50) ([2]; Breast MDA-MB-231 CL5005): 4.7
-Log (GI50) ([2]; Breast MDA-MB-435 (CL5011)): 5.9
-Log (GI50) ([2]; Breast MDA-N CL5012): 5.8
-Log (GI50) ([2]; Breast T-47D (CL5014)): 5.4
-Log (GI50) ([2]; CNS SF-268 CL12014): 5.4
-Log (GI50) ([2]; CNS SF-295 CL12015): 5.3
-Log (GI50) ([2]; CNS SF-539 CL12016): 5.6
-Log (GI50) ([2]; CNS SNB-19 (CL12002)): 3.9
-Log (GI50) ([2]; CNS SNB-75(I) CL12005): 5.1
-Log (GI50) ([2]; CNS U251(I) CL12009): 4.9
-Log (GI50) ([2]; Colon COLO-250 CL4010): 5.3
-Log (GI50) ([2]; Colon HCC-2998 (CL4002)): 5.5
-Log (GI50) ([2]; Colon HCT-15 CL4015): 5.4
-Log (GI50) ([2]; Colon HCT-116 (CL4003)): 5.6
-Log (GI50) ([2]; Colon HT29(I) CL4001): 5.4
-Log (GI50) ([2]; Colon KM12 (CL4017)): 5.1
-Log (GI50) ([2]; Colon SW-620 (CL4009)): 5.2
-Log (GI50) ([2]; Leukemia CCRF-CEM(I) (CL7003)): 5.9
-Log (GI50) ([2]; Leukemia HL-60(I) (CL7008)): 5.6
-Log (GI50) ([2]; Leukemia K562(I) CL7005): 6.5
-Log (GI50) ([2]; Leukemia MOLT-4 (CL7006)): 5.8
-Log (GI50) ([2]; Leukemia RPMI-8226(I) (CL7010)): 5.8
-Log (GI50) ([2]; Leukemia SR CL7019): 5.9
-Log (GI50) ([2]; Melanoma LOX IMVI CL10001): 6.4
-Log (GI50) ([2]; Melanoma M14 (CL10014)): 6.2
-Log (GI50) ([2]; Melanoma MALME-3M CL10002): 5.4
-Log (GI50) ([2]; Melanoma SK-MEL-2 (CL10005)): 5.2
-Log (GI50) ([2]; Melanoma SK-MEL-5 (CL10007)): 5.1
-Log (GI50) ([2]; Melanoma SK-MEL-28 (CL10008)): 3.5
-Log (GI50) ([2]; Melanoma UACC-62 (CL10020)): 5.8
-Log (GI50) ([2]; Melanoma UACC-257 (CL10021)): 4.8
-Log (GI50) ([2]; NCSLC NCI-H522 CL1003): 5.8
-Log (GI50) ([2]; NSCLC A549/ATCC (CL1004)): 4.6
-Log (GI50) ([2]; NSCLC EKVX (CL1008)): 3.6
-Log (GI50) ([2]; NSCLC HOP-62 (CL1026)): 5.7
-Log (GI50) ([2]; NSCLC HOP-92 (CL1029)): 5.6
-Log (GI50) ([2]; NSCLC NCI-H23(I) CL1001): 5.4
-Log (GI50) ([2]; NSCLC NCI-H226 CL1013): 4.3
-Log (GI50) ([2]; NSCLC NCI-H332M CL1017): 5.1
-Log (GI50) ([2]; NSCLC NCI-H460 CL1021): 5.3
-Log (GI50) ([2]; Ovarian IGROV1 CL6010): 5.1
-Log (GI50) ([2]; Ovarian OVCAR-3 CL6001): 6.1
-Log (GI50) ([2]; Ovarian OVCAR-4 CL6002): 5.1
-Log (GI50) ([2]; Ovarian OVCAR-5 CL6003): 5.1
-Log (GI50) ([2]; Ovarian OVCAR-8 CL6005): 5.6
-Log (GI50) ([2]; Ovarian SK-OV-3 CL6011): 6.0
-Log (GI50) ([2]; Prostate DU-145 CL11003): 5.6
-Log (GI50) ([2]; Prostate PC-3(I) CL11001): 5.4
-Log (GI50) ([2]; Renal 786-O CL9018): 5.7
-Log (GI50) ([2]; Renal A498 CL9013): 4.2
-Log (GI50) ([2]; Renal ACHN CL9023): 5.2
-Log (GI50) ([2]; Renal CAKI-1 CL9015): 5.6
-Log (GI50) ([2]; Renal RXF-393 CL9016): 4.5
-Log (GI50) ([2]; Renal SN12C CL9008): 4.6
-Log (GI50) ([2]; Renal TK10 CL9024): 5.7
-Log (GI50) ([2]; Renal UO-31 CL9004): 5.2
